System: TgIF2α
Experiment: Western blot of TgIF2α phosphorylation
Assay type: cell-based, Toxoplasma gondii
Settings: wild-type parasites treated with the ionophore
Experimental: In order to confirm that the TgIF2α-S71A clone could not be phosphorylated under normal physiological condition, a Western blot of lysates from parasites treated with the ionophore A23187 was carried out using antisera that specifically recognizes TgIF2α which is phosphorylated at ser-71 or total TgIF2α protein (Narasimhan et al., 2008b; Sullivan Jr. et al., 2004b). Referring now to FIG. 1C, equal amounts of protein lysates from WT or TgIF2α-S71A tachyzoites were resolved on a 4-12% polyacrylamide gel and transferred to a membrane for immunoblotting with antibody that specifically recognizes TgIF2α phosphorylated at ser-71 (TgIF2α-P) or total TgIF2α protein. […]
Next addressed was whether TgIF2K-D is required for induced TgIF2α phosphorylation when the parasite is outside of the host cell. Referring now to FIG. 9A, TgIF2α phosphorylation was analyzed by separating cell lysates via denaturing SDS-PAGE, followed by western blotting using antibodies to total TgIF2α or phosphorylated TgIF2α (TgIF2α˜P). […]
Phosphorylation of TgIF2α was monitored by Western blotting performed in accordance with standard methods. […]
Western blot analyses of TgIF2α phosphorylation were carried out as previously described. […] HA-tagged proteins were detected by western blot analyses after resolving parasite lysate on a 3-8% Tris-acetate polyacrylamide gradient gel. […]

CNc1ccc2oc(C[C@H]3O[C@@]4(CC[C@H]3C)O[C@H]([C@H](C)C(=O)c3ccc[nH]3)[C@H](C)C[C@H]4C)nc2c1C(=O)O [A23187]
induction of TgIF2α phosphorylation: potent inducer

Source: patent US8962265B2, “Mutant parasites for use as vaccines and platforms for screening for compounds” (Indiana University Research and Technology Corp., priority 2010, dated 2015)
